Source: patent US11149029B2, “Salts of IJAK inhibitors and methods of using the same” (AstraZeneca AB, priority 2018, dated 2021)
Values joined by “and” are separate entries in the source; they are usually repeats but may differ in a detail not shown here. Equal entries are not always repeated. Structures can show the parent of a compound that is named as a salt.

What was measured:
[1] = Gravimetric vapor sorption analysis (GVS), water absorption 0-80% relative humidity; assay type: physicochemical; details: for Water absorption 0-80% RH (% w/w): gravimetric vapor sorption
[2] = Weight loss on heating from room temperature to 120° C.; assay type: physicochemical; details: heating from room temperature (RT) to 120° C.
Protocol: From the crystal structure (performed using single crystal X-ray diffraction, SXRD) of the free base compound of Formula (Ia), it was determined that the form was a non-stoichiometric hydrate.
Accordingly, a salt screen was performed and out of 20 counter ions tested, three salts (phosphoric, sulfuric and xinafoic salt) were scaled up (5 g) and further analysis was performed. […] (sulfuric salt) and 5.4% w/w RT−120° C. (phosphoric salt).
Screening was performed at Almac including over 110 solvent and non-solvent based screening experiments.

[3] = listed as free base compound of Formula (Ia)

## COC[C@H](C(=O)Nc1cccc2c(-c3nc(Nc4cccc(S(C)(=O)=O)c4F)ncc3F)c[nH]c12)N1CCN(C)CC1 [Xinafoate salt of compound of Formula (Ia)] [4-{(2R)-1-[(3-{5-fluoro-2-[2-fluoro-3-(methanesulfonyl)anilino]pyrimidin-4-yl}-1H-indol-7-yl)amino]-3-methoxy-1-oxopropan-2-yl}-1-methylpiperazin-1-ium; 1-hydroxynaphthalene-2-carboxylate]
[1]
  Hygroscopicity (in words): non-hygroscopic
  Water absorption 0-80% RH (% w/w): ~0.2 % w/w
[1]; listed as xinafoate salt
  Water absorption 0-80% RH (% w/w): 0.2 % w/w
[2]
  Weight loss RT-120° C. (% w/w): ~0.2 % w/w
[2]; listed as xinafoate salt
  Weight loss RT-120° C. (% w/w): 0.2 % w/w

## COC[C@H](C(=O)Nc1cccc2c(-c3nc(Nc4cccc(S(C)(=O)=O)c4F)ncc3F)c[nH]c12)N1CCN(C)CC1 [Free base compound of Formula (Ia), (R)—N-(3-(5-fluoro-2-(2-fluoro-3-(methylsulfonyl)phenylamino)pyrimidin-4-yl)-1H-indol-7-yl)-3-methoxy-2-(4-methylpiperazin-1-yl)propanamide]
[1]
  Hygroscopicity (in words): slightly hygroscopic
  Water absorption 0-80% RH (% w/w): ~1.7 % w/w
[1]; [3]
  Water absorption 0-80% RH (% w/w): 2 % w/w and 1.7 % w/w
[2]
  Weight loss RT-120° C. (% w/w): ~5 % w/w
[2]; [3]
  Weight loss RT-120° C. (% w/w): 5 % w/w
